What was measured:
Schizochytrium = experiment: Forward versus side scatter flow cytometry for oxamate-induced cell death; format: cell-based; conditions: at higher concentrations of oxamate, FIG. 3
Description: Schizochytrium or chlamydomonas were harvested, counted, and resuspended at 10^6 cells/100 μl of PBS containing 2.5% fetal calf serum in preparation for flow cytometric analysis. Lysosensor dyes were used to detect fatty acids in glyoxosomes or oil droplets. Mitochondrial membrane potential was assessed using Mitotracker Red (CM-H2XROS, BD Pharmingen). The cells were resuspended in PBS containing 2.5% fetal calf serum containing a final concentration of 0.5 micromolar Mitotracker dye. The cells were incubated at 37° for 20 minutes, washed twice in PBS containing 2.5% fetal calf serum and analyzed flow cytometrically. Data were acquired on a Coulter Excel flow cytometer (Coulter, Hialeah, Fla.) and analyzed with FloJo software. […] Each sample population was classified for cell size (forward scatter) and complexity (side scatter), gated on a population of interest and evaluated using 30,000 cells.
Percents: Gating is a tool provided by FloJo software and allows for the analysis of a certain population of cells. […] After the gates were drawn, a percent value of dead cells was calculated by taking the number of dead cells divided by the number of total cells and multiplying by one hundred.
The bar graph in FIG. 3 depicts the increase in geometric mean of fluorescence in the treated group minus the untreated. […]

cell wall UCP = conditions: wild type strains of C. reinhardtii; prior studies, U.S. Pat. No. 7,105,718; cited from earlier work

Row | SMILES | percentage of cell death (Schizochytrium) | cell wall expression of UCP (cell wall UCP)
1 | NC(=O)C(=O)O [Oxamate, oxamate] | significantly increased percentage of cell death | 
2 | CNc1cnn(-c2cccc(C(F)(F)F)c2)c(=O)c1Cl [norflurazon] |  | did upregulate cell wall expression of UCP

From US8450090B2, “Compositions and methods for promoting fatty acid production in plants” (The Regents of the University of Colorado, a body corporate, priority 2009, dated 2013)
